Tests used:
Format in all cases: cell-based
[1] = system: Chikungunya virus (CHIKV); assay: microbe, parasite or virus in culture; details: Chikungunya virus, Vero, 48 h, read-out: Percent viral inhibition CHKV
dengue virus (DENV) = assay: microbe, parasite or virus in culture; details: Dengue virus, Vero, 120 h, read-out: Percent viral inhibition DENY
Marburg virus (MARV) = assay: organism not typed; details: Vero, 72 h, read-out: Percent viral inhibition MARV

**Q.** What does the source list for COC(=O)NCC1CCN(Cc2cc(Oc3cnc(N4CCN(CCC(=O)O)[C@@H](C)C4)nc3)nc(-c3cc(Cl)cc(Cl)c3)c2)CC1 [Example 294, (S)-3-(4-(5-((6-(3,5-dichlorophenyl)-4-((4-(((methoxycarbonyl)amino)methyl)piperidin-1-yl)methyl)pyridin-2-yl)oxy)pyrimidin-2-yl)-2-methyl-piperazin-1-yl)propanoic acid]?
**A.** inhibition at 1 µM [1]: 28.7%; inhibition at 1 µM (dengue virus (DENV)): 57.7%; inhibition at 1 µM (Marburg virus (MARV)): 54.2%

**Q.** What does the source list for CNC(=O)NCC1CCN(Cc2cc(Oc3cnc(N4CCN(CCCS(N)(=O)=O)CC4)nc3)nc(-c3cc(Cl)cc(Cl)c3)c2)CC1 [Example 48, 3-(4-(5-((6-(3,5-dichlorophenyl)-4-((4-((3-methylureido)methyl)piperidin-1-yl)methyl)pyridin-2-yl)oxy)pyrimidin-2-yl)piperazin-1-yl)propane-1-sulfonamide]?
**A.** inhibition at 1 µM [1]: 15.2%; inhibition at 1 µM (dengue virus (DENV)): 26%; inhibition at 1 µM (Marburg virus (MARV)): 15.7%

**Q.** For CC(=O)NCC1CCN(Cc2cc(Oc3ccc(N4CCN(CCN(C)S(C)(=O)=O)CC4)nc3)nc(-c3cc(Cl)cc(Cl)c3)c2)CC1 [Example 32, N-((1-((2-(3,5-dichlorophenyl)-6-((6-(4-(2-(N-methylmethylsulfonamido)ethyl)piperazin-1-yl)pyridin-3-yl)oxy)pyridin-4-yl)methyl)piperidin-4-yl)methyl)acetamide], which inhibition at 1 µM [1] is on record?
**A.** 49.4%

**Q.** And the inhibition at 1 µM (dengue virus (DENV))?
**A.** 34.2%

**Q.** And the inhibition at 1 µM (Marburg virus (MARV))?
**A.** 63.5%

**Q.** With CC(=O)NCC1CCN(Cc2cc(Oc3ccc(N4CCN(CCCC(=O)O)CC4)nc3)nc(-c3cc(Cl)cc(Cl)c3)c2)CC1 [Example 249, 4-(4-(5-((4-((4-(acetamidomethyl)piperidin-1-yl)methyl)-6-(3,5-dichlorophenyl)pyridin-2-yl)oxy)pyridin-2-yl)piperazin-1-yl)butanoic acid] as the compound, how does the inhibition at 1 µM [1] read?
**A.** 32.5%

**Q.** What about the inhibition at 1 µM (dengue virus (DENV)) of the same compound?
**A.** 48.6%

**Q.** What about the inhibition at 1 µM (Marburg virus (MARV)) of the same compound?
**A.** 51.4%

**Q.** Which inhibition at 1 µM [1] does the source give for CS(=O)(=O)CC1CCN(Cc2cc(Oc3ccc(N4CCN(CCC(=O)O)CC4)nc3)nc(-c3cc(Cl)cc(Cl)c3)c2)CC1 [Example 39, 3-(4-(5-((6-(3,5-dichlorophenyl)-4-((4-((methylsulfonyl)methyl)piperidin-1-yl)methyl)pyridin-2-yl)oxy)pyridin-2-yl)piperazin-1-yl)propanoic acid] here?
**A.** 23.7%

**Q.** What about the inhibition at 1 µM (dengue virus (DENV)) of the same compound?
**A.** 54.7%

**Q.** What about the inhibition at 1 µM (Marburg virus (MARV)) of the same compound?
**A.** 60.1%

**Q.** What does the source list for CNCc1cc(Oc2cnc(N3CCN(CCCS(C)(=O)=O)CC3)nc2)nc(-c2cc(Cl)cc(Cl)c2)c1 [Example 37, 1-(2-(3,5-dichlorophenyl)-6-((2-(4-(3-(methylsulfonyl)propyl)piperazin-1-yl)pyrimidin-5-yl)oxy)pyridin-4-yl)-N-methylmethanamine]?
**A.** inhibition at 1 µM [1]: 32.9%; inhibition at 1 µM (dengue virus (DENV)): 100%; inhibition at 1 µM (Marburg virus (MARV)): 56.6%

**Q.** What does the source list for CC(=O)NCC1CCN(Cc2cc(Oc3cnc(N4CCN(CCCS(C)(=O)=O)CC4)nc3)nc(-c3cc(Cl)cc(Cl)c3)c2)CC1 [Example 259, N-((1-((2-(3,5-dichlorophenyl)-6-((2-(4-(3-(methylsulfonyl)propyl)piperazin-1-yl)pyrimidin-5-yl)oxy)pyridin-4-yl)methyl)piperidin-4-yl)methyl)acetamide]?
**A.** inhibition at 1 µM [1]: 15%; inhibition at 1 µM (dengue virus (DENV)): 47%; inhibition at 1 µM (Marburg virus (MARV)): 67.2%

**Q.** With CN1CCN(c2ncc(Oc3nc(-c4cc(Cl)cc(Cl)c4)cc(CN4CCC(CC(=O)O)CC4)c3F)cn2)CC1 [Example 379, 2-(1-((6-(3,5-dichlorophenyl)-3-fluoro-2-((2-(4-methylpiperazin-1-yl)pyrimidin-5-yl)oxy)pyridin-4-yl)methyl)piperidin-4-yl)acetic acid] as the compound, how does the inhibition at 1 µM [1] read?
**A.** 41.5%

**Q.** What about the inhibition at 1 µM (dengue virus (DENV)) of the same compound?
**A.** 35.2%

**Q.** And the inhibition at 1 µM (Marburg virus (MARV))?
**A.** 51.2%

**Q.** For C[C@@H](O)CN1CCN(c2ncc(Oc3cc(CN4CCC(OCC(=O)O)CC4)cc(-c4cc(Cl)cc(Cl)c4)n3)cn2)CC1 [Example 317, (R)-2-((1-((2-(3,5-dichlorophenyl)-6-((2-(4-(2-hydroxypropyl)piperazin-1-yl)pyrimidin-5-yl)oxy)pyridin-4-yl)methyl)piperidin-4-yl)oxy)acetic acid], which inhibition at 1 µM [1] is on record?
**A.** 14.8%

**Q.** And the inhibition at 1 µM (dengue virus (DENV))?
**A.** 20.2%

**Q.** What about the inhibition at 1 µM (Marburg virus (MARV)) of the same compound?
**A.** 53.6%

From patent publication US20230011571A1, “SMALL MOLECULE FURIN INHIBITORS FOR TREATING INFECTIOUS DISEASES” (BP Asset V, Inc., priority 2019, published 2023)
